Patent US5137811A, “Method for diagnosing periodontal diseases with a substrate specific for aminopeptidase activity of periodontopathic bacteria” (Sunstar Kabushiki Kaisha, priority 1986, dated 1992)
Where a SMILES comes first, the peptide text is derived from it. The star is where a group is joined. βNA = c1ccc2cc(N*)ccc2c1

Key:
[1] = test system: Fusobacterium nucleatum; experiment: Hydrolytic activity of oral anaerobe cell suspension on aminopeptidase substrates (Experiment 1); format: cell-based; details: three strains, substrate 0.2 mM, pH 7.0, 37° C., 60 minutes, Table 1
In short: (§1)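 Treponema grown anaerobically in TYGVS (37 °C, 7 days) and other strains in brain heart infusion (37 °C, 48–72 h), then diluted to A660 1.0. Cells reacted 60 min at 37 °C with β-naphthylamine-derived substrates (0.2 mM solution, 0.1 M Tris-HCl pH 7.0). Garnet GBC coupling, A525 after 15 min; activity graded from mean released β-naphthylamine per strain.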

[2] = test system: Treponema denticola; experiment: as above; format: cell-based; details: four strains, substrate 0.2 mM, pH 7.0, 37° C., 60 minutes, Table 1
In short: as §1

[3] = test system: Actinobacillus actinomycetemcomitans; experiment: as above; format: cell-based; details: four strains, substrate 0.2 mM, pH 7.0, 37° C., 60 minutes, Table 1
In short: as §1

[4] = test system: Bacteroides gingivalis; experiment: as above; format: cell-based; details: five strains, substrate 0.2 mM, pH 7.0, 37° C., 60 minutes, Table 1
In short: as §1

[5] = test system: Capnocytophaga sp.; experiment: as above; format: cell-based; details: four strains, substrate 0.2 mM, pH 7.0, 37° C., 60 minutes, Table 1
In short: as §1

[6] = test system: Actinomyces israelli; experiment: Hydrolytic activity of cell suspension, substrates alone or in combination (Experiment 3); format: cell-based; details: two strains, Table 3
Experimental: (§2) The strains of Treponema were anaerobically cultivated using TYGVS media at 37° C. for 7 days, while other bacterial strains were cultivated using brain heart infusion broth at 37° C. for 48 to 72 hours. Each culture was diluted to obtain a bacterial cell suspension, the absorption at 660 nm of which was 1.0.
(§3) Substrate compounds for aminopeptidase enzyme having various color developing groups derived from β-naphthylamine were dissolved in 0.1M Tris-HCl buffer (pH 7.0) at the concentration of 0.2 mM to obtain substrate solutions.
(§4) To the substrate solution (1.5 ml) was added the above cell suspension (0.3 ml) and reacted at 37° C. for 60 minutes. After completion of the reaction, a coloring reagent [prepared by dissolving diazonium salt of Garnet GBC in 1M acetate buffer (containing 10% Tween 20, pH: 4.2) at the concentration of 0.5 mg/ml] was added and, after 15 minutes, the absorption at 525 nm was determined with a spectrophotometer.
(§5) On the basis of the average amount of released β-naphthylamine in each strain, the hydrolytic activity was expressed as follows: […]
(§6) According to the same manner as described in Experiment 1, periodontopathic bacteria specific aminopeptidase activity was tested by using four strains of Treponema denticola, five strains of B. gingivalis, four strains of Actinobacillus actinomycetemcomitans, two strains of Actinomyces israelli and three strains of Fusobacterium nucleatum. Abbreviations in Table 3 are the same as those in Tables 1 and 2. Hydrolytic activity "+++" means "40≤release amount<80 nmol/ml" and "++++" means "release amount≥80 nmol/ml".

[7] = test system: Fusobacterium nucleatum; experiment: as above; format: cell-based; details: three strains, Table 3
Experimental: as §2, §3, §4, §5, §6

[8] = test system: Treponema denticola; experiment: as above; format: cell-based; details: four strains, Table 3
Experimental: as §2, §3, §4, §5, §6

[9] = test system: Actinobacillus actinomycetemcomitans; experiment: as above; format: cell-based; details: four strains, Table 3
Experimental: as §2, §3, §4, §5, §6

[10] = test system: B. gingivalis; experiment: as above; format: cell-based; details: five strains, Table 3
Experimental: as §2, §3, §4, §5, §6

[11] = test system: periodontopathic bacteria specific aminopeptidase activity; experiment: Hydrolytic activity of gingival crevicular fluid specimens, visually evaluated (Experiment 5); format: biochemical; set-up: key: -: orange; +: dark orange; ++: brown; +++: dark brown
Experimental: as §3, §4
Specimens of gingival crevicular fluid were collected with paper points from five subjects who were considered to be healthy from their clinical state, six subjects with gingivitis and six subjects with periodontitis. Each specimen was dispersed in Ringer's solution (1.5 ml), and the relative amount of spirochete to total bacteria: [formula] was determined with a phase contrast microscope. Further, the Ringer's solution (0.3 ml) was tested for hydrolytic activity using the substrate solution prepared in the same manner as described in Experiment 1. As substrates, there were used compounds of the formula [1], i.e., N-benzoylvalyl-glycyl-arginine-β-naphthylamide (BzVGR) and N-carbobenzoxy-valyl-glycyl-arginine-β-naphthylamide (CxVGR) were used.
In table 4, hydrolytic activity was visually evaluated and expressed as follows: […]
According to the same manner as described in Experiment 4, hydrolytic activity was tested by using the compounds of the formula [2], i.e., lysyl-proline-β-naphthylamide (KP) and N-carbobenzoxy-prolyl-alanyl-glycylproline-β-naphthylamide (CxPAGP) as the substrates.

[12] = test system: periodontopathic bacteria specific aminopeptidase activity; experiment: Hydrolytic activity of saliva supernatant (Experiment 8); format: biochemical; details: 37° C. for 4 hours, Table 8
Experimental: A saliva mixture was collected from a group consisting of ten healthy subjects and centrifuged to obtain a supernatant. Likewise, centrifuged supernatants were obtained from a group of ten subjects with adult periodontitis and a group of four localized juvenile periodontitis. The supernatant was used as a specimen and its hydrolytic activity was determined according to the same manner as described in Experiment 4 except that the reaction was carried out at 37° C. for 4 hours. As the substrates, there were used N-carbobenzoxy-valyl-glycyl-arginine-p-nitrophenol (CxVGR-pNP), N-carbobenzoxy-valyl-glycylarginine-4-methoxy-2-naphthylamide (CxVGR-4NA) and N-carbobenzoxy-valyl-glycyl-arginine-β-naphthylamide (CxVGR-βNA). Color was developed by using lN sodium hydroxide for CxVGR-pNP and Fast Blue BB for CxVGR-4NA and CxVGR-βNA.
According to the same manner as described in Experiment 7, hydrolytic activity was tested by using lysylproline-p-nitroanilide (KP-pNA), lysyl-proline-4-methoxy-2-naphthylamide (KP-4NA) and lysyl-proline-β-naphthylamide (KP-βNA)as the substrates. Color was developed by using lN sodium hydroxide for KP-pNA and Fast Blue BB for KP-4-NA and KP-βNA.

[13] = test system: Actinomyces israelli; experiment: Hydrolytic activity of cell suspension on aminopeptidase substrates (Experiment 2); format: cell-based; details: two strains, Table 2
In short: (§7)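 A660 1.0 cell suspension + 0.2 mM β-naphthylamine-derived aminopeptidase substrate, 0.1M Tris-HCl pH 7.0, 37° C., 60 min. Garnet GBC (0.5 mg/ml, acetate pH 4.2, 10% Tween 20), 15 min, A525. Activity graded from mean β-naphthylamine released per strain.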

[14] = test system: Fusobacterium nucleatum; experiment: as above; format: cell-based; details: three strains, Table 2
In short: as §7

[15] = test system: B. denticola; experiment: as above; format: cell-based; details: Table 2
In short: as §7

[16] = test system: Treponema denticola; experiment: as above; format: cell-based; details: four strains, Table 2
In short: as §7

[17] = test system: B. corporis; experiment: as above; format: cell-based; details: Table 2
In short: as §7

[18] = test system: B. melaninogenicus; experiment: as above; format: cell-based; details: two strains, Table 2
In short: as §7

[19] = test system: Actinobacillus actinomycetemcomitans; experiment: as above; format: cell-based; details: four strains, Table 2
In short: as §7

[20] = test system: B. gingivalis; experiment: as above; format: cell-based; details: five strains, Table 2
In short: as §7

[21] = test system: B. intermedius; experiment: as above; format: cell-based; details: three strains, Table 2
In short: as §7

Compound: N=C(N)NCCC[C@H](NC(=O)CN)C(=O)Nc1ccc2ccccc2c1 [GR, glycyl-arginine-β-naphthylamide] (H-Gly-Arg-βNA)
- hydrolytic activity (average amount of released β-naphthylamine) [1]: - (release amount<5 nmol/ml)
- hydrolytic activity (average amount of released β-naphthylamine) [2]: + (10 ≤release amount<20 nmol/ml)
- hydrolytic activity (average amount of released β-naphthylamine) [3]: - (release amount<5 nmol/ml)
- hydrolytic activity (average amount of released β-naphthylamine) [4]: ++ (20 ≤release amount<40 nmol/ml)
- hydrolytic activity (average amount of released β-naphthylamine) [5]: ± (5 ≤release amount<10 nmol/ml)
- hydrolytic activity (release amount) [6]: - (release amount<5 nmol/ml)
- hydrolytic activity (release amount) [7]: - (release amount<5 nmol/ml)
- hydrolytic activity (release amount) [8]: + (10 ≤release amount<20 nmol/ml)
- hydrolytic activity (release amount) [9]: - (release amount<5 nmol/ml)
- hydrolytic activity (release amount) [10]: ++ (20 ≤release amount<40 nmol/ml)

Compound: NCCCC[C@H](N)C(=O)N1CCC[C@H]1C(=O)Nc1ccc2ccccc2c1 [KP, lysyl-proline-β-naphthylamide] (H-Lys-Pro-βNA)
- hydrolytic activity, visually evaluated ([11]; Gingivitis subject 1 (spirochete 7.3 %)): +
- hydrolytic activity, visually evaluated ([11]; Gingivitis subject 2 (spirochete 16.7 %)): +
- hydrolytic activity, visually evaluated ([11]; Gingivitis subject 3 (spirochete 20.5 %)): ++
- hydrolytic activity, visually evaluated ([11]; Gingivitis subject 4 (spirochete 6.8 %)): -
- hydrolytic activity, visually evaluated ([11]; Gingivitis subject 5 (spirochete 7.3 %)): -
- hydrolytic activity, visually evaluated ([11]; Gingivitis subject 6 (spirochete 14.4 %)): +
- hydrolytic activity, visually evaluated ([11]; Healthy subject 1 (spirochete 0.1 %)): -
- hydrolytic activity, visually evaluated ([11]; Healthy subject 2 (spirochete 2.5 %)): +
- hydrolytic activity, visually evaluated ([11]; Healthy subject 3 (spirochete 1.1 %)): -
- hydrolytic activity, visually evaluated ([11]; Healthy subject 4 (spirochete 0.6 %)): -
- hydrolytic activity, visually evaluated ([11]; Healthy subject 5 (spirochete 1.3 %)): -
- hydrolytic activity, visually evaluated ([11]; Periodontitis subject 1 (spirochete 45.2 %)): +++
- hydrolytic activity, visually evaluated ([11]; Periodontitis subject 2 (spirochete 30.3 %)): +++
- hydrolytic activity, visually evaluated ([11]; Periodontitis subject 3 (spirochete 34.6 %)): +++
- hydrolytic activity, visually evaluated ([11]; Periodontitis subject 4 (spirochete 21.2 %)): +++
- hydrolytic activity, visually evaluated ([11]; Periodontitis subject 5 (spirochete 40.3 %)): +++
- hydrolytic activity, visually evaluated ([11]; Periodontitis subject 6 (spirochete 35.1 %)): +++
- hydrolytic activity ([12]; Adult Periodontitis subjects): 36.2 ± 9.9 nmol/mL
- hydrolytic activity ([12]; Healthy subjects): 16.1 ± 10.3 nmol/mL
- hydrolytic activity ([12]; Localized juvenile periodontitis subjects): 33.4 ± 10.0 nmol/mL
- hydrolytic activity (average amount of released β-naphthylamine) [13]: - (release amount<5 nmol/ml)
- hydrolytic activity (average amount of released β-naphthylamine) [14]: - (release amount<5 nmol/ml)
- hydrolytic activity (average amount of released β-naphthylamine) [15]: ++ (20 ≤release amount<40 nmol/ml)
- hydrolytic activity (average amount of released β-naphthylamine) [16]: ++ (20 ≤release amount<40 nmol/ml)
- hydrolytic activity (average amount of released β-naphthylamine) [17]: ++ (20 ≤release amount<40 nmol/ml)
- hydrolytic activity (average amount of released β-naphthylamine) [18]: ++ (20 ≤release amount<40 nmol/ml)
- hydrolytic activity (average amount of released β-naphthylamine) [19]: - (release amount<5 nmol/ml)
- hydrolytic activity (average amount of released β-naphthylamine) [20]: +++ (release amount≥40 nmol/ml)
- hydrolytic activity (average amount of released β-naphthylamine) [21]: ++ (20 ≤release amount<40 nmol/ml)
